# Test results taken from paper PMC3993903 (Molecular pharmaceutics, 2014).
# Assays:
# Type in all cases: cell-based, human
# [1] = test system: drug-resistant cervical cancer cells KB-V1; experiment: Cellular uptake by KB-V1 cells; details: 5 µM, absence or presence of equal molar C8-Tat (5 µM), flow cytometry
# [2] = test system: KB-3-1 cells; experiment: Cytotoxicity; details: 2 h treatment with 5 or 15 µM, further 46 h in drug-free medium, SRB, mean ± s.d. n = 3
# [3] = test system: KB-V1 cells; experiment: Cytotoxicity; details: 2 h treatment with 5 or 15 µM, further 46 h in drug-free medium, SRB, mean ± s.d. n = 3
smiles,measurement,setting,value
"COc1cccc2c1C(=O)c1c(O)c3c(c(O)c1C2=O)C[C@@](O)(C(=O)CO)C[C@@H]3O[C@H]1C[C@H](N)[C@H](O)[C@H](C)O1 [Dox, doxorubicin]",intracellular accumulation with or without C8-Tat treatment,[1],almost identical
same,short-term cytotoxicity (cell viability),[2],toxicity toward drug-sensitive cells
same,short-term cytotoxicity (cell viability),[3],not on drug-resistant cells
